Converted amounts (≈) assume the structure as drawn. Like-named read-outs stand apart in the source and are kept apart here.

This is an account of results in publication PMC3366674, “Epigenetic Tailoring for the Production of Anti-Infective Cytosporones from the Marine Fungus Leucostoma persoonii” (Marine Drugs, 2012).

In test [1] the test system is methicillin-resistant Staphylococcus aureus (MRSA) USA100. Nature of the test: Microtiter MIC determination against MRSA USA100. The conditions noted are these: for MIC: Staphylococcus aureus; for activity against MRSA: pure compound. Type of test: cell-based. As for the experimental part:
(§1) The strain of MRSA used in our bioassays is a hospital-associated clone from the CDC USA 100 lineage. […] It is thus deemed an extensively drug resistant strain, and something of a worst-case scenario MRSA isolate.
(§2) The minimum inhibitory concentration (MIC) of the pure compounds was determined as follows. Broth cultures were prepared for S. aureus strains as described above. These were diluted 1:1000 in fresh Trypticase Soy Broth (TSB) and 200 µL was applied to the wells of a sterile 96-well plate. Compounds (in DMSO) were added to wells at concentrations ranging from 1, 10, 25, 50 to 100 µg/mL in a volume no greater than 5 µL. Concentrations were adjusted to lower levels if applicable. Samples were mixed by pipetting and the plates were incubated at 37 °C overnight. MICs were determined by visual inspection for the minimum concentration of compound producing no bacterial growth, as determined by a lack of turbidity. Assays were repeated three times in order to verify the MIC determinations. […] Minimum bactericidal concentration (MBC) counts were performed on the MIC cultures by removing the growth media from each well the following morning, serially diluting, and plating onto Trypticase Soy Agar (TSA). These were incubated overnight at 37 °C and the bacterial loads of each well were determined by enumeration. Percentage killing was determined by the comparison of drug-containing wells to control wells where no compound was added.

Another test concerns Plasmodium falciparum. Nature of the test: Malaria assay (luciferase-reporter Plasmodium falciparum). Type of test: cell-based. The conditions noted are these: for activity toward Plasmodium falciparum: levels tested up to 10 µg/mL. The method, then: Mangrove endophytes isolated as described above were subject to small-scale cultivation on Sabouraud dextrose agar (SDA), freeze dried, then extracted with methanol. Extracts at a concentration of 30 mg/mL were screened in a luciferase-reporter Plasmodium falciparum assay.
Malaria screening was done as previously reported.

The next test concerns A549 cells. Description: A549 cytotoxicity assay (CellTiter 96 Aqueous One). The test is classed as cell-based, human. Particulars: 72 h incubation. As for the experimental part:
Cell line A549 (adenocarcinomic human alveolar epithelial cells) was cultured in F-12K Nutrient Mixture (Kaighn’s Modification) media containing L-glutamine, supplemented with 10% fetal bovine serum and 1% penicillin-streptomycin. For the assay, the A549 cells were diluted to 1.33 × 10^5 cells/mL in DMEM F12 media with L-glutamine, without HEPES or phenol red, and supplemented with 2% fetal bovine serum and 1% penicillin-streptomycin. The A549 cells were dispensed into 96 well plates at a volume of 90 µL/well giving a final concentration of 12,000 cells per well. Plates were incubated for 24 h at 37 °C and 5% CO2. After 24 h, 10 µL of the test compounds at concentrations of 0.4, 1.2, 3.7, 11, 33.3 and 100 µg/mL were added to the 96 well plates containing A549 cells followed by 72 h of incubation at 37 °C and 5% CO2. A Beckman-Coulter Biomek NX 3000 was used to dispense cells and dispense test compounds to the 96 well plates. Positive (bronopol) and negative (blank DMSO) controls were included on each assay plate. After the incubation period, cell proliferation was assessed using Promega’s CellTiter 96 Aqueous One Solution Cell Proliferation Assay reagent. Into each well 20 µL of reagent was added followed by incubation for 3 h at 37 °C and 5% CO2. A Biotek plate reader was used to read absorbance at 490 nm and IC50 values were determined for each test compound.

Another test deals with MRSA biofilm. Nature of the test: Minimum biofilm eradication count (MBEC) biofilm assay. The test is classed as cell-based, Staphylococcus aureus. The conditions noted are these: MRSA USA100 biofilm; for MRSA MBEC90: 24 h exposure. The method, then:
as §1
We performed minimum biofilm eradication count (MBEC) assays on cytosporones to assess their activity towards this form of bacterial growth. These were performed by generating S. aureus biofilms in a 96-well microtitre plate, as previously described. Once established, biofilm cultures were exposed to fresh growth media containing a range of concentrations of 15, 20, 25 and 50 µg/mL of the cytosporones. Control analyses were performed in parallel containing no compound. Cultures were incubated, covered, for 24 h at 37 °C without shaking. After this time the culture media was aseptically aspirated, and the wells rinsed twice with PBS to remove non-adherent cells. Fresh PBS (100 µL) was then added to the wells, and mixed by vigorous pipetting, to dislodge the biofilm matrix from the surface of the wells. These samples were serially diluted, plated on TSA, with cells enumerated after overnight incubation at 37 °C. Each of the above analyses was performed with 3 biological replicates, each of which also had 3 technical replicates. By comparing CFU/mL against control, no-exposed cultures, we were able to obtain a quantitative assessment of the impact of cytosporones on S. aureus biofilms.

Test [2] relates to methicillin-resistant Staphylococcus aureus (MRSA) USA100. Nature of the test: Minimum bactericidal concentration (MBC) counts on MIC cultures. The test is classed as cell-based. The conditions noted are these: for fold reduction in bacterial viability at MIC: MRSA USA100, at MIC; for MBC: Staphylococcus aureus, MRSA USA100, read-out: MRSA MBC90. As for the experimental part: as §1, §2

The subject of test [3] is methicillin-sensitive S. aureus (MSSA). Description: Microtiter MIC determination against MSSA. The test is classed as cell-based. Particulars: Staphylococcus aureus, methicillin-sensitive S. aureus strains. The method, then: as §2
The mark [4] stands for this setting: MRSA USA100, overnight 37 °C, visual turbidity, read-out: MRSA MIC.

Regarding `CCCCCCCC(=O)c1c(O)cc(O)cc1CC(=O)OCC(O)CO` (stereo not shown) [Cytosporone R, cytosporone R], in test [1] (setting [4]), the MIC – broadly, the lowest concentration found to suppress growth – was 503 µM. For the same compound, the “activity against MRSA” value in test [1] was “inactive”.
Take `CN[C@H](CC(C)C)C(=O)N[C@H]1C(=O)N[C@@H](CC(N)=O)C(=O)N[C@H]2C(=O)N[C@H]3C(=O)N[C@H](C(=O)N[C@H](C(=O)O)c4cc(O)cc(O)c4-c4cc3ccc4O)[C@H](O)c3ccc(c(Cl)c3)Oc3cc2cc(c3O[C@@H]2O[C@H](CO)[C@@H](O)[C@H](O)[C@H]2O[C@H]2C[C@](C)(N)[C@H](O)[C@H](C)O2)Oc2ccc(cc2Cl)[C@H]1O` [vancomycin, reference compound]: the minimal inhibitory concentration (MIC) in test [1] (read-out: MIC of positive control) came to 1 µg/mL.
For the compound `CCCCCCCC1OC(=O)Cc2cc(O)cc(O)c21` (stereo not shown) [Cytosporone C, cytosporone C], the “activity toward Plasmodium falciparum” value in the test with Plasmodium falciparum was “inactive”. Moreover, the minimum inhibitory concentration (MIC) in test [1] (setting [4]) was greater than 358 µM. Further, the “activity against MRSA” value in test [1] is “inactive”. Moreover, in the test on A549 cells (Homo sapiens), the half-maximal inhibitory concentration (IC50) (usually the concentration that inhibits the measured activity by half) was 690 µM. Further, the 90% effect level with A549 cells (Homo sapiens, A549, 72 h) (IC90) was put at 840 µM.
Consider `CCCCCCCC(=O)c1c(O)cc(O)cc1CC(=O)OCC` [Cytosporone B, cytosporone B], for which the “activity toward Plasmodium falciparum” value in the test with Plasmodium falciparum is “inactive”. Moreover, in test [1] (setting [4]), the MIC turned out to be 78 µM. In the test with A549 cells (Homo sapiens), the IC50 is 170 µM. Moreover, the 90% effect concentration (IC90) – broadly, the concentration at which the effect reaches the 90% level – with A549 cells (Homo sapiens, A549, 72 h) was 190 µM. Besides, in the test on MRSA biofilm, the “MRSA MBEC90” value is listed as 110 µM and the “fold reduction in biofilm (MBEC assay) at MIC” value is 2 fold. In addition, the “fold reduction in biofilm formation at twice the MIC” value with MRSA biofilm (at twice the MIC) is recorded as 168 fold. Moreover, in test [2], the “fold reduction in bacterial viability at MIC” value was 4.2 fold and the MBC came out at 93 µM (≈ 30 µg/mL). Further, the “bacterial killing at twice the MIC” value in test [2] (MRSA USA100, at twice the MIC) was “complete killing of the bacteria”.
With `CCCCCCCC1OC(=O)c2cc(O)c(O)c(O)c21` (stereo not shown) [Cytosporone E, cytosporone E], the concentration for an effect of 90% (IC90) in the test on Plasmodium falciparum (Plasmodium falciparum, read-out: IC90 toward Plasmodium falciparum) turned out to be 13 µM; with A549 cells (listed as Cytosporone E (3)) it was 440 µM; in the test on A549 cells (Homo sapiens, A549, 72 h), 437 µM. Besides, the minimum inhibitory concentration (MIC) in test [1] (setting [4]) is 72 µM; in test [3], 72 µM (≈ 20.2 µg/mL). In the test with A549 cells (Homo sapiens), this compound displayed a half-maximal inhibitory concentration (IC50) of 280 µM. Besides, the “MRSA MBEC90” value in the test on MRSA biofilm worked out at 39 µM. Further, in the test on MRSA biofilm, the “fold reduction in biofilm (MBEC assay) at MIC” value turned out to be 183 fold. Further, the “fold reduction in bacterial viability at MIC” value in test [2] is on record as greater than 5000 fold. In test [2], the MBC came out at 45 µM (≈ 12.6 µg/mL).
